Laboratory results taken from PubChem BioAssay AID651912 (NMMLSC, 2012).
pEC50: −log10 of the molar value.

The compounds below were run against Beta-2 adrenergic receptor (Homo sapiens) (UniProt P07550) (assay: beta2AR agonists driving receptor internalization, dose response, cell-based, FAP fluorogen, flow cytometry, powder set 5 (AID 651912)). Details: AM2.2-beta2AR cells, 90 min.
Chain of Beta-2 adrenergic receptor (Homo sapiens) (P07550 whole entry, looked up): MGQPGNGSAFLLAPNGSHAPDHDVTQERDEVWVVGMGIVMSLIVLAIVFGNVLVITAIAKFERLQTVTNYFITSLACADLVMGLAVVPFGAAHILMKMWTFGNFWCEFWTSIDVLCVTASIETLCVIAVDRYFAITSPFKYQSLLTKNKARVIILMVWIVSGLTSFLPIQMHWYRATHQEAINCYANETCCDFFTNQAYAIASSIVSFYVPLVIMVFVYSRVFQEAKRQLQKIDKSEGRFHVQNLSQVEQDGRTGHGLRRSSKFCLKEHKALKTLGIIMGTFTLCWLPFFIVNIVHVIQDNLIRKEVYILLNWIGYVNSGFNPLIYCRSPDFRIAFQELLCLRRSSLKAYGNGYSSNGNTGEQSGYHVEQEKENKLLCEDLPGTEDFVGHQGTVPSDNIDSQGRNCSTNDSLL

| Structure (SMILES) | pEC50 |
| --- | --- |
| CCC(=O)Nc1ccc(S(=O)(=O)N2CCCCC2CC)cc1 (configuration not stated) | 8.32 |
| CN(CC(=O)N1CCN(c2ccc(F)cc2)CC1)S(=O)(=O)c1ccc(Br)cc1 | 6.47 |
| CC(=O)Nc1ccc(S(=O)(=O)N2CCCCC2C)cc1 (configuration not stated) | 7.10 |
| O=C(C1CCCN1S(=O)(=O)c1ccc(Cl)cc1)N1CCN(c2ccccn2)CC1 (configuration not stated) | 6.66 |
| Cc1cccc(C(=O)Nc2ccc(S(=O)(=O)N3CCCCC3C)cc2)c1 (configuration not stated) | 5.40 |
| CC1CCCCN1S(=O)(=O)c1ccc(NC(=O)c2cccnc2)cc1 (configuration not stated) | 6.87 |
| CCC1CCCCN1S(=O)(=O)c1ccc(NC(C)=O)cc1 (configuration not stated) | 6.88 |
